Source: the supplement of paper PMC9938120

Legend:
Assay in all cases: drug sensitivity score (DSS3, normalised partial AUC of % inhibition dose-response) (DSS (score)); higher = more sensitive (stronger inhibition of viability); extreme values may be limits of the assay
Conditions in all cases: 72 h; library: FO5A; assay format: 2D, 384-well, CellTiter-Glo
FMOC02_1 = test system: FMOC02_1 (patient-derived low-grade serous ovarian cancer cells)
How it was run: (§1)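 The drug sensitivity score is calculated as a partial area under the percent-inhibition dose-response curve, divided by the log of the upper asymptote; higher scores mean more sensitive. For this score, early-passage (under 10) patient-derived ovarian cancer cells were exposed on 384-well flat clear-bottom plates to compounds at five concentrations across a 10,000-fold range for 72 h at 37 °C, 5% CO2. Viability was read with CellTiter-Glo and processed in Breeze.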

FMOC02_2 = test system: FMOC02_2 (patient-derived low-grade serous ovarian cancer cells)
How it was run: as §1

FMOC02_3 = test system: FMOC02_3 (patient-derived low-grade serous ovarian cancer cells)
How it was run: as §1

FMOC03 = test system: FMOC03 (patient-derived mucinous ovarian cancer cells)
How it was run: as §1

FMOC04 = test system: FMOC04 (patient-derived high-grade serous ovarian cancer cells)
How it was run: as §1

FMOC06 = test system: FMOC06 (patient-derived mucinous ovarian cancer cells)
How it was run: as §1

FMOC09 = test system: FMOC09 (patient-derived high-grade serous ovarian cancer cells)
How it was run: as §1

FMOC11 = test system: FMOC11 (patient-derived high-grade serous ovarian cancer cells)
How it was run: as §1

FMOC14 = test system: FMOC14 (patient-derived high-grade serous ovarian cancer cells)
How it was run: as §1

FMOC17 = test system: FMOC17 (patient-derived low-grade serous ovarian cancer cells)
How it was run: as §1

FMOC22 = test system: FMOC22 (patient-derived mucinous ovarian cancer cells)
How it was run: as §1

FMOC24 = test system: FMOC24 (patient-derived high-grade serous ovarian cancer cells)
How it was run: as §1

FMOC25_2 = test system: FMOC25_2 (patient-derived low-grade serous ovarian cancer cells)
How it was run: as §1

FMOC27 = test system: FMOC27 (patient-derived low-grade serous ovarian cancer cells)
How it was run: as §1

FMOC28 = test system: FMOC28 (patient-derived low-grade serous ovarian cancer cells)
How it was run: as §1

SMILES	drug sensitivity score (FMOC02_1)	drug sensitivity score (FMOC02_2)	drug sensitivity score (FMOC02_3)	drug sensitivity score (FMOC03)	drug sensitivity score (FMOC04)	drug sensitivity score (FMOC06)	drug sensitivity score (FMOC09)	drug sensitivity score (FMOC11)	drug sensitivity score (FMOC14)	drug sensitivity score (FMOC17)	drug sensitivity score (FMOC22)	drug sensitivity score (FMOC24)	drug sensitivity score (FMOC25_2)	drug sensitivity score (FMOC27)	drug sensitivity score (FMOC28)
O=c1ncn2nc(Sc3ccc(F)cc3F)ccc2c1-c1c(Cl)cccc1Cl [Neflamapimod]	0	0	0	0	0	0.3	1.1	1	0	0	0	0.05	0	0.1	1.1
CC(O)c1cc(C(=O)N[C@@H](C)Cn2ccc(-c3ccc(C#N)c(Cl)c3)n2)n[nH]1 (stereo not given in full) [ODM-201]	0	0	0	0.4	0	0.7	0.9	0	0	0	0	0	0.5	0	0
C=CC(=O)Nc1cccc(Oc2nc(Nc3ccc(N4CCN(C)CC4)cc3)nc3ccsc23)c1 [Olmutinib]	2.3	2.1	2.3	0.8	0.05	0.2	3.5	0.4	0	2.6	0	0	1.5	2.4	1.7
Cc1ccc(=O)n(-c2ccccc2)c1 [Pirfenidone]	0	0	0	0	0	0	0	0.1	0	0.6	0	0	0	0	0
COC(=O)c1ccc([C@H]2c3[nH]c4ccccc4c3C[C@H](C(=O)OC)N2C(=O)CCl)cc1 [RSL3]	0	0	0	0	0	0	0	0	0	0	0	0	0	0	0
Cc1cn(-c2cc(NC(=O)c3ccc(C)c(Nc4nccc(-c5cnccn5)n4)c3)cc(C(F)(F)F)c2)cn1 [Radotinib]	0	0	0	0	0	2.4	0	0	0	0	0	1	0.2	0	1.6
CCOC(=O)C1=CCCC[C@H]1S(=O)(=O)Nc1ccc(F)cc1Cl [Resatorvid]	0	0	0	0	0	0.1	0	0	0	0	0	0	0	0	0
CCOCc1nc2c(N)nc3ccccc3c2n1CC(C)(C)O [Resiquimod]	0	0	0	0	0	0.6	0.2	0	0	0	0	1.5	0	0	0
C[C@H]1CNCCCN1S(=O)(=O)c1cccc2cncc(F)c12 [Ripasudil]	0	0	0	0	0	0	0	0	0	0	0	0	0	0	0
Cc1nc(C(=O)NCC(=O)O)c(O)c2ccc(Oc3ccccc3)cc12 [Roxadustat]	0	0	0	0	0	0	0	0	0	0	0	3.3	0	0.2	0
CC1=C2C[C@H]3[C@@H](CC[C@@H]4C[C@H](NS(C)(=O)=O)CC[C@@]43C)[C@@H]2CC[C@@]2(C1)O[C@@H]1C[C@H](C)CN[C@H]1[C@H]2C [Saridegib]	0	2.2	0	0	0	0	0	0	0	4.1	0	0.3	0	0	2.2
Cc1cc(F)c(C(=O)Nc2cccc(-c3nncn3C(C)C)n2)cc1-n1cnc(C2CC2)c1 [Selonsertib]	0	0	0	0	0	0	0	0	0	1.5	0	0.6	0	0	0
CN1CCN(C(=O)c2ccc3cc(CCNc4ncnc5ccc(C#N)cc45)ccc3c2)CC1 [Senexin B]	0.6	1.3	2.9	1.5	0	1	0	0	0	0.6	0	0.2	1.2	0	0
COCC[n+]1c2c(n(Cc3cnccn3)c1C)C(=O)c1ccccc1C2=O [Sepantronium bromide]	38.4	30.6	36.1	39	38.1	32.9	43.7	37.8	42.6	36.9	33.2	33.5	41.4	30.9	43
COCCNCc1ccc(-c2cc3nccc(Oc4ccc(NC(=O)C5(C(=O)Nc6ccc(F)cc6)CC5)cc4F)c3s2)nc1 [Sitravatinib]	2.1	1.1	2.5	0.3	0.45	1.6	1.4	1.1	1.2	2.1	0.4	5.8	2.2	2.5	1.5
CC(C)Oc1ccc(-c2nn([C@@H](C)c3oc4ccc(F)cc4c(=O)c3-c3cccc(F)c3)c3ncnc(N)c23)cc1F [TGR-1202]	1.6	1.1	2	0	0.05	0.3	0	0	1.7	3.5	0	0.2	0.1	0.1	4.6
CN(C(=O)c1ccc(F)cc1C(F)(F)F)C1CCN(c2nnc(-c3ccnn3C)c3ccccc23)CC1 [Taladegib]	0	0	0	0	0	0	0	0	0	0	0	0	0	0	0
CN1CCC(COc2cnc(-c3cccc(Cn4nc(-c5cccc(C#N)c5)ccc4=O)c3)nc2)CC1 [Tepotinib]	0.3	1.6	3.7	0.2	0.75	0	0	0	0	0.5	0	1.9	2.3	0	3.4
CC#CC(=O)N1CC[C@@H](n2c(=O)n(-c3ccc(Oc4ccccc4)cc3)c3c(N)ncnc32)C1 [Tirabrutinib]	3.9	3.9	3.5	1.8	0	0	0	1.6	0	2.6	0	0	3.5	1.1	0
O=c1[nH]c(=O)n([C@H]2C[C@H](O)[C@@H](CO)O2)cc1C(F)(F)F [Trifluridine]	0	0	0	0	0	1.2	0	0.3	0	0	0	0	0.2	0.5	0
Cc1cc(Nc2ncnc3ccc(NC4=NC(C)(C)CO4)cc23)ccc1Oc1ccn2ncnc2c1 [Tucatinib]	0	0.1	0	0	0	0	0	0	0	0	0	0	0.5	0	1
CC[C@@H]1CN(C(=O)NCC(F)(F)F)C[C@@H]1c1cnc2cnc3[nH]ccc3n12 [Upadacitinib]	0	0	0	0	0.1	1.3	0	0	0	0	0	1.2	0	0	2.1
CCCCOc1nc(N)c2c(n1)N(Cc1cccc(CN3CCCC3)c1)CC(=O)N2 [Vesatolimod]	0	0	0	0	0	0	0.2	0	0	0	0	0	0.1	0	0
COc1cccc(-c2ccc(NC(=O)C3=C(C(=O)O)CCC3)c(F)c2)c1 [Vidofludimus]	0	0	0	0.4	0.05	0	0	0.6	0	0	0	0	2.5	0	0
CC[C@]12C=CCN3CC[C@@]4(c5cc([C@@]6(C(=O)OC)C[C@@H]7C[C@@H](C(C)(F)F)CN(Cc8c6[nH]c6ccccc86)C7)c(OC)cc5N(C)[C@H]4[C@@](O)(C(=O)OC)[C@@H]1OC(C)=O)[C@@H]32 [Vinflunine]	3.6	3.2	5.8	1.7	4.1	0.8	3.6	3.4	0	5.1	0.9	0	3.6	0.6	1.3
